From ChEMBL document CHEMBL1144973, “Design, synthesis, and structure-activity relationship of a new class of amidinophenylurea-based factor VIIa inhibitors” (Bioorg Med Chem Lett, 2003)

What was measured:
[1] = biological target: T1, Coagulation factor VII (Homo sapiens, UniProt P08709); experiment: In vitro inhibitory activity against coagulation factor VII (fVIIa)
T1 sequence (P08709 whole entry): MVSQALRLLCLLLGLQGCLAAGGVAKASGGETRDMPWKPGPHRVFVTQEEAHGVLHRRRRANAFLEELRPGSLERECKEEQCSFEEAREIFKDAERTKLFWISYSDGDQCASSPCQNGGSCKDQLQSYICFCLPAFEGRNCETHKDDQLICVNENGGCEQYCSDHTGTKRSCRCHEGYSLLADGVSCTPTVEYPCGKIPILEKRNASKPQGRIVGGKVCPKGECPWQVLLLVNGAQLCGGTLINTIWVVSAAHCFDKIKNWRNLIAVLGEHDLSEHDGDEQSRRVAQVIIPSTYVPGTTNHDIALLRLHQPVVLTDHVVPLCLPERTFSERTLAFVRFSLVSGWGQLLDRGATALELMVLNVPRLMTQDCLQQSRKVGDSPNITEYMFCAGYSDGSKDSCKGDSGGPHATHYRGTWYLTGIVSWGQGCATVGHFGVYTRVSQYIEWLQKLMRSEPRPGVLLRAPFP

[2] = biological target: Prothrombin (Homo sapiens, UniProt P00734); experiment: In vitro inhibitory activity against thrombin
[3] = biological target: Coagulation factor X (Homo sapiens, UniProt P00742); experiment: In vitro inhibitory activity against […] coagulation factor (fXa)
Sequence of Coagulation factor X (P00742 41-179 limits assumed): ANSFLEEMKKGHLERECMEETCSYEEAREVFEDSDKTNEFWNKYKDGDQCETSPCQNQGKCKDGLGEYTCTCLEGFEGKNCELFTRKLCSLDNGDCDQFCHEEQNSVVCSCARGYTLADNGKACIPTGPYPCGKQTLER
Sequence of Coagulation factor X (P00742 235-488 limits assumed): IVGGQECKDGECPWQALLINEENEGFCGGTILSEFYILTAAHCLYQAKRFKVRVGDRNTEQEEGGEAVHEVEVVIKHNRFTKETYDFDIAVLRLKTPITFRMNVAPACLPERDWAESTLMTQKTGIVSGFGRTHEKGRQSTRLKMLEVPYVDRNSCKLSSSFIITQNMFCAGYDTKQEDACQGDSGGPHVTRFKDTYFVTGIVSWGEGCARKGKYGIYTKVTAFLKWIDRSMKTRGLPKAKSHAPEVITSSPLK

Row | SMILES | Ki [1] [µM] | Ki [2] [µM] | Ki [3] [µM]
1 | C[C@H](NC(=O)C(NC(=O)Nc1ccc(C(=N)N)cc1)c1ccccc1)c1cccc(Br)c1 (stereo not given in full) | 3.2 | – | –
2 | COc1cccc([C@H](C)NC(=O)CNC(=O)Nc2ccc(C(=N)N)cc2)c1 | 0.035 | 18.2 | > 10
3 | CC(NC(=O)CNC(=O)Nc1ccc(C(=N)N)cc1)c1ccc(C(F)(F)F)cc1C(F)(F)F (stereo not given) | – | > 100 | > 10
4 | C[C@H](NC(=O)CNC(=O)Nc1ccc(C(=N)N)c(F)c1)c1cccc(Br)c1 | 0.12 | – | –
5 | C[C@@H](NC(=O)CNC(=O)Nc1ccc(C(=N)N)cc1)c1cccc(Br)c1 | 31 | – | –
6 | C[C@H](NC(=O)CNC(=O)Nc1ccc(C(=N)N)cc1)c1ccccc1 | – | 50.7 | > 10
7 | C[C@@H](NC(=O)CNC(=O)Nc1ccc(C(=N)N)cc1)c1ccccc1 | – | > 50 | > 10

Further lines, results first:

Row | Ki [1] [µM] | Ki [2] [µM] | Ki [3] [µM] | SMILES
8 | 0.47 | – | – | CC(NC(=O)CNC(=O)Nc1ccc(C(=N)N)c(F)c1)c1ccc2c(c1)NC(=O)CO2 (stereo not given)
9 | 3.76 | – | – | C[C@H](NC(=O)CNC(=O)Nc1ccc(C(=N)N)c(Cl)c1)c1cccc(Br)c1
10 | 1.51 | > 50 | 7.8 | N=C(N)c1ccc(NC(=O)NCC(=O)NCc2cccc(Br)c2)cc1
11 | – | 16.4 | > 10 | CC(NC(=O)CNC(=O)Nc1ccc(C(=N)N)cc1)c1ccc2c(c1)NC(=O)CO2 (stereo not given)
12 | 45.8 | – | – | C[C@H](NC(=O)Nc1ccc(C(=N)N)cc1)C(=O)NCc1ccc(Cl)c(Cl)c1
13 | 0.067 | 11.2 | > 10 | C[C@H](NC(=O)CNC(=O)Nc1ccc(C(=N)N)cc1)c1ccc2c(c1)OCCO2
14 | – | 10.1 | 14.5 | N=C(N)c1ccc(NC(=O)NCC(=O)NCc2ccc(Cl)c(Cl)c2)cc1
15 | 0.027 | 15.9 | > 10 | C[C@H](NC(=O)CNC(=O)Nc1ccc(C(=N)N)cc1)c1cccc(Br)c1
16 | – | > 50 | > 10 | CC(C)(NC(=O)CNC(=O)Nc1ccc(C(=N)N)cc1)c1ccccc1
